The text below walks through data of patent publication US10995091B2 (Proximagen, LLC, priority 2010, dated 2021).

Structures are written as SMILES. Where a name gives a salt, the structure may show the parent alone. Some results are limits rather than exact numbers.

The target in the experiment is T1, Human CXCR4 transfected HEK293 cells (Homo sapiens, UniProt P61073).
T1 construct: expressed in transfected cells; host or cells: HEK293
T1 sequence (P61073 whole entry): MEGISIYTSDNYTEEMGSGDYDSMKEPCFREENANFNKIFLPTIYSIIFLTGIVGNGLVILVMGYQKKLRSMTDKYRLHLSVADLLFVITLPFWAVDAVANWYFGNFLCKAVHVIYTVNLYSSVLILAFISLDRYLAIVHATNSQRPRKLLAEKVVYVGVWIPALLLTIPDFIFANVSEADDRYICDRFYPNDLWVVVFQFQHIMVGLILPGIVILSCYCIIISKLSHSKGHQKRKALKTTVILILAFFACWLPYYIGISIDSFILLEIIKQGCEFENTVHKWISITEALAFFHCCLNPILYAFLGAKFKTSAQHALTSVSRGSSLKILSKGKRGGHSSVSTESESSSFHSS
The experiment in a line: CXCR4 functional calcium assay (calcium flux FLIPR, antagonism of SDF1 response). The experiment is classed as cell-based. To be noted: CXCR4 functional activity, antagonism of SDF1 (EC50 concentration), read-out: CXCR4 fKi. Here is the method:
The functional activity of test compounds was routinely tested by measuring the ability of compounds to antagonize CXCR4 activity in a dose dependent manner, using a calcium flux Fluorescent Imaging Plate Reader FLIPR assay.
Human CXCR4 transfected HEK293 cells were cultured in Dulbecco's modified Eagles medium containing 4.5 g/L glucose, L-glutamine, pyruvate, 50 µg/mL Geneticin and 250 µg/mL hygromycin B and maintained at 37° C. in a humidified, 5% CO2 controlled atmosphere. Subcultivations were performed every 2-3 d.
At confluence the cells were lifted using Ca^2+ and Mg^2+ free PBS/0.02% (w/v) EDTA, spun at 1000 rpm for 3 min and resuspended at 2.5×10^5 cells/mL. Cells were plated into a 384 well, poly-d-lysine coated, black with clear bottomed plate (Becton Dickinson) at 7500 cells/well. The plates were incubated overnight at 37° C. under 5% CO2. On the day of the experiment the cells were washed with incubation Buffer (HBSS containing 2.5 mM probenecid, 0.1% w/v BSA and 10 mM HEPES, pH 7.4 at 37° C.). After washing, the cells were loaded with Fluo-4 AM dye (Molecular probes) at 2 µM containing 0.48 µg/mL pluronic acid for 60 min at 37° C. under 5% CO2. After thorough washing with incubation buffer the cells were preincubated for 10 min at 37° C. before use.
A combined agonist/antagonist protocol was used to measure changes in intracellular calcium concentration. Compound (antagonist) was added to the cell plate using a Fluorometric Imaging Plate Reader (FLIPR) (Molecular Devices, Sunnyvale, Calif., USA). Basal fluorescence was recorded every second for 10 seconds prior to compound addition (10 μl) and fluorescence recorded every second for 1 min then every 6 seconds for a further 1 min. SDF1[…] (EC50 concentration) was then added using the FLIPR and fluorescence recorded as described above. Curve-fitting and parameter estimation were carried out using GraphPad Prism 4.0 (GraphPad Software Inc., San Diego, Calif.).
In general terms: Calcium assays in cells follow changes in intracellular calcium, usually with a dye or a luminescent sensor.
For `CC(C)N1CCO[C@H](CN2CCCN(c3cccc(C(=O)Nc4ccncc4)n3)CC2)C1` [Example 244, 6-(4-{[(2R)-4-(Propan-2-yl)morpholin-2-yl]methyl}-1,4-diazepan-1-yl)-N-(pyridin-4-yl)pyridine-2-carboxamide], the Ki was 20 to 100 nM.

Turning to `NC(=O)c1cccc(N2CCCN(C3CCN(Cc4ccccc4Cl)CC3)CC2)n1` [Example 136, 6-(4-{1-[(2-Chlorophenyl)methyl]piperidin-4-yl}-1,4-diazpan-1-yl)pyridine-2-carboxamide], the Ki is 100 to 500 nM.

Turning to `O=C(NCC1CC1)c1cccc(N2CCCN(C3CCN([C@@H]4CCc5ccccc54)CC3)CC2)n1` [Example 76, N-(Cyclopropylmethyl)-6-(4-{1-[(1R)-2,3-dihydro-1H-inden-1-yl]piperidin-4-yl}-1,4-diazepan-1-yl)pyridine-2-carboxamide], the Ki was 20 to 100 nM.

`O=C(NCC1CC1)c1cccc(N2CCCN(CCCN3CCc4ccccc4C3)CC2)n1` [Example 252, N-(Cyclopropylmethyl)-6-{4-[3-(1,2,3,4-tetrahydroisoquinolin-2-yl)propyl]-1,4-diazepan-1-yl}pyridine-2-carboxamide]: the Ki was 500 to 1000 nM.

Take `CCc1nc(-c2cccc(N3CCCN(C4CCN(C(C)C)CC4)CC3)n2)no1` [Example 155, 1-[6-(5-Ethyl-1,2,4-oxadiazol-3-yl)pyridine-2-yl]-4-[1-(propan-2-yl)piperidin-4-yl]-1,4-diazepane trihydrochloride]: the Ki lay within 100 to 500 nM.

With `[2H]C1([2H])CCN(c2cccc(C(=O)Nc3ccncc3)n2)CC(C)N1C1CCN(Cc2ccc(F)cc2Cl)CC1` (stereo not drawn) [Example 207, 6-(4-{1-[(2-Chloro-4-fluorophenyl)methyl]piperidin-4-yl}-5,5-dihydrogenio-3-methyl-1,4-diazepan-1-yl)-N-(pyridin-4-yl)pyridine-2-carboxamide], the Ki was less than 20 nM.

Consider `CC(C)N1CCC(N2CCCN(c3cccc(C(=O)NCC4CCOCC4)n3)CC2)CC1` [Example 1, N-(Oxan-4-ylmethyl)-6-{4-[1-(propan-2-yl)piperidin-4-yl]-1,4-diazepan-1-yl}pyridine-2-carboxamide], for which the Ki lay within 100 to 500 nM.

Turning to `Cc1ccc2nc(-c3cccc(N4CCCN(C5CCN(C(C)C)CC5)CC4)n3)[nH]c2c1` [Example 148, 6-Methyl-2-(6-{4-[1-(propan-2-yl)piperidin-4-yl]-1,4-diazepan-1-yl}pyridine-2-yl)-1H-1,3-benzodiazole], the Ki was in the range of 20 to 100 nM.

`c1ccc2c(c1)CCC2N1CCC(N2CCCN(c3nccs3)CC2)CC1` (stereo not drawn) [Example 126, 1-[1-(2,3-Dihydro-1H-inden-1-yl)piperidin-4-yl]-4-(1,3-thiazol-2-yl)-1,4-diazepane]: the Ki lay in the range of 500 to 1000 nM.

On to `Cc1nc(-c2cccc(N3CCCN(C4CCN(C(C)C)CC4)CC3)n2)[nH]c1C1CC1` [Example 121, 1-[6-(4-Cyclopropyl-5-methyl-1H-imidazol-2-yl)pyridine-2-yl]-4-[1-(propan-2-yl)piperidin-4-yl]-1,4-diazepane], for which the Ki is less than 20 nM.

In the case of `CC(C)N1CCC(N2C3CCCC2CN(c2cccc(C(=O)NCC4CC4)n2)CC3)CC1` (stereo not drawn) [Example 217, N-(Cyclopropylmethyl)-6-{10-[1-(propan-2-yl)piperidin-4-yl]-3,10-diazabicyclo[4.3.1]decan-3-yl}pyridine-2-carboxamide], the Ki lay in the range of 100 to 500 nM.

Regarding `Clc1ccccc1CN1CCC(N2CCCN(c3nccs3)CC2)CC1` [Example 267, 1-{1-[(2-Chlorophenyl)methyl]piperidin-4-yl}-4-(1,3-thiazol-2-yl)-1,4-diazepane], the Ki was in the range of 100 to 500 nM.

Consider `C[C@@H](N1CCC(N2CCCN(c3cccc(C(=O)Nc4ccncc4)n3)CC2)CC1)C(F)(F)F` [Example 81, N-(Pyridin-4-yl)-6-(4-{1-[(2R)-1,1,1-trifluoropropan-2-yl]piperidin-4-yl}-1,4-diazepan-1-yl)pyridine-2-carboxamide], for which the Ki is less than 20 nM.

In the case of `CC(C)N1CCC(N2CCCN(c3cccc(C(=O)Nc4nccs4)n3)CC2)CC1` [Example 31, 6-{4-[1-(Propan-2-yl)piperidin-4-yl]-1,4-diazepan-1-yl}-N-(1,3-thiazol-2-yl)pyridine-2-carboxamide], the Ki is less than 20 nM.

With `CC(C(F)F)N1CCC(N2CCCN(c3cccc(C(=O)NCC4CC4)n3)CC2)CC1` (stereo not drawn) [Example 68, N-(Cyclopropylmethyl)-6-{4-[1-(1,1-difluoropropan-2-yl)piperidin-4-yl]-1,4-diazepan-1-yl}pyridine-2-carboxamide], the Ki fell in the range of 100 to 500 nM.

Take `OCc1cccc(N2CCCN(C3CCN(Cc4ccccc4Cl)CC3)CC2)n1` [Example 260, [6-(4-{1-[(2-Chlorophenyl)methyl]piperidin-4-yl}-1,4-diazepan-1-yl)pyridin-2-yl]methanol]: the Ki is 500 to 1000 nM.

In the case of `CC[C@@H](C)N1CCC(N2CCCN(c3cccc(C(=O)Nc4ccncc4)n3)CC2)CC1` [Example 78, 6-(4-{1-[(2R)-Butan-2-yl]piperidin-4-yl}-1,4-diazepan-1-yl)-N-(pyridine-4-yl)pyridine-2-carboxamide], the Ki is less than 20 nM.

As for `CC(C)N1CCC(N2CCCN(c3cccc(-c4ncc(-c5ccccc5)[nH]4)n3)CC2)CC1` [Example 114, 1-[6-(4-Phenyl-1H-imidazol-2-yl)pyridine-2-yl]-4-[1-(propan-2-yl)piperidin-4-yl]-1,4-diazepane], the Ki was 100 to 500 nM.

For `CCCC(=O)c1cccc(N2CCCN(C3CCN(C(C)C)CC3)CC2)n1` [Example 219, 1-(6-{4-[1-(Propan-2-yl)piperidin-4-yl]-1,4-diazepan-1-yl}pyridin-2-yl)butan-1-one], the Ki lay within 100 to 500 nM.

`O=C(NCc1cocn1)c1cccc(N2CCCN(C3CCN(Cc4ccccc4Cl)CC3)CC2)n1` [Example 58, 6-(4-{1-[(2-Chlorophenyl)methyl]piperidin-4-yl}-1,4-diazepan-1-yl)-N-(1,3-oxazol-4-ylmethyl)pyridine-2-carboxamide]: the Ki is 100 to 500 nM.

Take `CC(C)N1CCC(N2CCCN(c3cccc(-c4nc5cccc(F)c5[nH]4)n3)CC2)CC1` [Example 142, 7-Fluoro-2-(6-{4-[1-(propan-2-yl)piperidin-4-yl]-1,4-diazepan-1-yl}pyridine-2-yl)-1H-1,3-benzodiazole]: the Ki was 20 to 100 nM.

Turning to `CCCNC(=O)c1cccc(N2CCCN(C3CCN(C(C)C)CC3)CC2)n1` [Example 5, 6-{4-[1-(Propan-2-yl)piperidin-4-yl]-1,4-diazepan-1-yl}-N-propylpyridine-2-carboxamide], the Ki lay in the range of 20 to 100 nM.

In the case of `Cc1nc(-c2cccc(NCCNC[C@@H]3CCN(C4CCCC4)C3)n2)[nH]c1C1CC1` [Example 247, {[(3S)-1-Cyclopentylpyrrolidin-3-yl]methyl}(2-{[6-(5-cyclopropyl-4-methyl-1H-imidazol-2-yl)pyridin-2-yl]amino}ethyl)amine], the Ki fell in the range of 20 to 100 nM.

As to `[2H]C1([2H])CCN(C2CCN([C@H](C)CC)CC2)CCN1c1cccc(C(=O)Nc2ccncc2)n1` [Example 176, 6-(4-{1-[(2R)-Butan-2-yl]piperidin-4-yl}-7,7-dihydrogenio-1,4-diazepan-1-yl)-N-(pyridine-4-yl)pyridine-2-carboxamide], the Ki was less than 20 nM.

Consider `Cc1cccc(N2CCCN(C3CCN(Cc4ccccc4Cl)CC3)CC2)n1` [Example 262, 1-{1-[(2-Chlorophenyl)methyl]piperidin-4-yl}-4-(6-methylpyridin-2-yl)-1,4-diazepane], for which the Ki is 500 to 1000 nM.

Turning to `COc1ccccc1CN1CCC(N2CCCN(c3cccc(C(=O)NCC4CC4)n3)CC2)CC1` [Example 133, N-(Cyclopropylmethyl)-6-(4-{1-[(2-methoxyphenyl)methyl]piperidin-4-yl}-1,4-diazepan-1-yl)pyridine-2-carboxamide], the Ki fell in the range of 20 to 100 nM.

For `[2H]C1([2H])CCN(C2CCN(C(C)C)CC2)CCN1c1cccc(C(=O)Nc2ccncc2)n1` [Example 175, 6-{7,7-Dihydrogenio-4-[1-(propan-2-yl)piperidin-4-yl]-1,4-diazepan-1-yl}-N-(pyridine-4-yl)pyridine-2-carboxamide], the Ki is less than 20 nM.

Regarding `Cc1cc2nc(-c3cccc(N4CCCN(C5CCN(C(C)C)CC5)CC4)n3)[nH]c2cc1C` [Example 146, 5,6-Dimethyl-2-(6-{4-[1-(propan-2-yl)piperidin-4-yl]-1,4-diazepan-1-yl}pyridine-2-yl)-1H-1,3-benzodiazole], the Ki lay in the range of 100 to 500 nM.

Consider `O=C(Nc1ccncc1)c1cccc(N2CC[C@@H](NC[C@H]3CCN(C4CCCC4)C3)C2)n1` [Example 227, 6-[(3R)-3-({[(3R)-1-Cyclopentylpyrrolidin-3-yl]methyl}amino)pyrrolidin-1-yl]-N-(pyridin-4-yl)pyridine-2-carboxamide], for which the Ki is less than 20 nM.

In the case of `CC(C)N1CCC(N2CCCN(c3cccc(C(=O)Nc4cccnc4)n3)CC2)CC1` [Example 29, 6-{4-[1-(Propan-2-yl)piperidin-4-yl]-1,4-diazepan-1-yl}-N-(pyridin-3-yl)pyridine-2-carboxamide], the Ki lay in the range of 20 to 100 nM.
